How the values were obtained:
[1] = system: Plasmodium falciparum; experiment: Antimalarial activity against Plasmodium falciparum 3D7 A infected in red blood cells assessed as inhibition of [3H]hypoxanthine incorporation after 24 hrs by scintillation counting; format: functional, organism-based
[2] = Clearance in human microsomes at 0.5 uM; format: ADME, Microsome
[3] = Clearance in mouse microsomes at 0.5 uM; format: ADME, Microsome
[4] = biological target: Voltage-gated inwardly rectifying potassium channel KCNH2 (Homo sapiens, UniProt Q12809); experiment: Displacement of Cy3b-dofetilide from human ERG expressed in CHO cells by fluorescence polarization assay
Voltage-gated inwardly rectifying potassium channel KCNH2, sequence (Q12809 whole entry): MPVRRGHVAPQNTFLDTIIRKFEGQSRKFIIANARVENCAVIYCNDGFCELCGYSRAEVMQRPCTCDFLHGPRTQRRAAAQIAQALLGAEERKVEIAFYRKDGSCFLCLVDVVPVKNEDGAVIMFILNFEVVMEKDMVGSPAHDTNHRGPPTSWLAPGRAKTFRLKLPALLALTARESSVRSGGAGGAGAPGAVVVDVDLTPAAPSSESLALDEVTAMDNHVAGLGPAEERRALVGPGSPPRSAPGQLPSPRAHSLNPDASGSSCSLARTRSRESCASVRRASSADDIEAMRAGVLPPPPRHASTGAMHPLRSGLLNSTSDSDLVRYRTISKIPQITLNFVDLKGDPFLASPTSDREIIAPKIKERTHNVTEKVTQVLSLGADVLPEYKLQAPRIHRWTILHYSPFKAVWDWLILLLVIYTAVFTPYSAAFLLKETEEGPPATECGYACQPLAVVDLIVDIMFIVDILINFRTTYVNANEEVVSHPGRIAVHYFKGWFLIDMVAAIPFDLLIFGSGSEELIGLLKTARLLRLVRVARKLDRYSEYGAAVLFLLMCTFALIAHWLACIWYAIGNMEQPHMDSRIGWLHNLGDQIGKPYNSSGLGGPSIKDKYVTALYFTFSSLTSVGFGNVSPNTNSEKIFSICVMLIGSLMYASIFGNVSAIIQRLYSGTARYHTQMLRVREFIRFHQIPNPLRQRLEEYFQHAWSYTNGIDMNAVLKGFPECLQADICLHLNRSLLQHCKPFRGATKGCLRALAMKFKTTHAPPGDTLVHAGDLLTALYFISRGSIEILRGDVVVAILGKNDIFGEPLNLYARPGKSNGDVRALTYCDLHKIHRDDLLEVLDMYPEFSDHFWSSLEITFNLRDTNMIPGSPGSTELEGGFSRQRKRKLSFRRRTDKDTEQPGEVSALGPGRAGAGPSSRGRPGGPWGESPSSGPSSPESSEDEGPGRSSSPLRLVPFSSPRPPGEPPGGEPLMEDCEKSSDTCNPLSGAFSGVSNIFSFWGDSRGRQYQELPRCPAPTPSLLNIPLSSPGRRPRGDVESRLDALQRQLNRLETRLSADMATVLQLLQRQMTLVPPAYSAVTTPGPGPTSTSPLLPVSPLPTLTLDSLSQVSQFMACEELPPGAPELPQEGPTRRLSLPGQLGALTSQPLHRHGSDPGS

Row | SMILES | IC50 [1] [nM] | CL [2] [mL/min/g] | CL [3] [mL/min/g] | INH [4] [µM] | XC50 [1] [nM]
1 | CN(C)CCNC(=O)c1cc2c(-c3ccc(Cl)cc3)nn(C)c2s1 | 950 | 0.3 | 4 | 6.3 | –
2 | Cc1cc(C(=O)NC2CCN(CC3(c4ccc(Cl)cc4)CCC3)CC2)on1 | 80 | 18.8 | 5.6 | – | 90
3 | COc1cc2c(cc1C(F)(F)F)N(C(=O)Nc1cc(OC(F)(F)F)cc(-c3cccnc3)c1)CC2 | 80 | < 0.3 | < 0.3 | > 15 | 40

Further lines, with some results ahead:

Row | IC50 [1] [nM] | CL [2] [mL/min/g] | CL [3] [mL/min/g] | SMILES | INH [4] [µM] | XC50 [1] [nM]
4 | 30 | < 0.3 | < 0.8 | O=C(Nc1cc(C(F)(F)F)ccc1-n1cncn1)C1(c2ccccc2)CC1 | – | –
5 | 100 | 12.7 | > 30 | CC(C)(C)c1cc(C(=O)N2CCN(c3ncccc3C(F)(F)F)CC2)n(Cc2ccccc2)n1 | > 50 | –

Source: ChEMBL document CHEMBL2021880, “An Invitation to Open Innovation in Malaria Drug Discovery: 47 Quality Starting Points from the TCAMS” (ACS Med Chem Lett, 2011)
